In patent publication US4816474A, “Amino substituted thienothiopyran derivatives, composition containing them, and method of using them to stimulate presynaptic dopamine receptors” (Ciba-Geigy Corporation, priority 1987, dated 1989):
Structures can show the parent of a compound that is named as a salt.

Tests used:
[1] = tested on: presynaptic dopamine receptor (dopamine autoreceptor); assay: GBL model in the rat: in-vivo presynaptic dopamine agonist (dopamine autoreceptor agonist) activity, inhibition of GBL-induced DOPA accumulation; settings: dose inhibiting DOPA accumulation by 50%
Protocol: The in-vivo presynaptic dopamine agonist activity (also called dopamine autoreceptor agonist activity) is determined in the rat gamma-butyrolactone (GBL) model by a modification of the procedure described by Walters and Roth, Naunyn Schmiedeberg's Arch. Pharmacol. 296, 5 (1976). In this model, a presynaptic dopamine agonist inhibits the GBL-induced accumulation of the dopamine precursor DOPA in the brain after pretreatment with 3-hydroxybenzylhydrazine (NDS-1015), a DOPA decarboxylase inhibitor.
Test compounds are dissolved in 0.9% saline, with sodium metabisulfite to prevent oxidation, if required. Animals are treated with i.p. injections of solutions of test compounds or saline, followed by gamma-butyrolactone (GBL, 750 mg/kg i.p.) or saline for control animals 15 minutes later, and finally with NSD-1015 (100 mg/kg i.p.) 5 minutes after the administration of GBL. Thirty minutes after the administration of NSD-1015, animals are sacrificed, brains are removed, and striatae are isolated, then frozen at -70° C. until deproteinization, extraction and analysis. The ED50 (dose at which the DOPA accumulation is inhibited by 50%) values are determined by plotting the percent inhibition of DOPA accumulation versus log10 of the dose of test compound administered. The same method is also applicable to oral administration of the test compounds.

[2] = target: presynaptic dopamine receptor; assay: 3H-ADTN presynaptic dopamine receptor binding assay (displacement of 3H-ADTN from calf caudate nucleus membranes); settings: inhibition of specific binding of 0.2 nM 3H-ADTN by 50%, 60 min, 25° C.
Protocol: The presynaptic dopamine receptor binding properties indicative of the presynaptic dopamine receptor regulatory, e.g. agonistic activity, of the compounds of the invention can be determined in the dopamine binding assay in vitro by the following method involving the displacement of the dopamine agonist 2-amino-6,7-dihydroxy-1,2,3,4-tetrahydronaphthalene (^3 H-ADTN) from membranes of calf-caudate nucleus.
In the binding assay, triplicate 2 ml samples (equivalent to 5 mg/ml of brain tissue) of the calf brain caudate nucleus membrane suspension are incubated for 60 minutes at 25° C. with 0.2 nM ^3 H-ADTN without or in the presence of various concentrations of test compound in solvent. The reaction is terminated by filtering with 5 ml of cold 50 mM Tris-HCl buffer pH 7.7. The filters are placed in scintillation vials with 5 ml of scintillation solution, disrupted by vigorous mechanical shaking for 90 minutes, and counted for radioactivity.
The IC50 values which represent the concentration of test compounds required to inhibit the specific binding of 0.2 nM ^3 H-ADTN by 50% are determined graphically.

| SMILES | ED50 in the GBL model ([1]; i.p.) | ED50 in the GBL model ([1]; p.o.) | IC50 [2] |
| --- | --- | --- | --- |
| CCCN(CCC)C1CSc2sccc2C1 (stereo not drawn) [5-dipropylamino-5,6-dihydro-4H-thieno[2,3-b]thiopyran] | about 2.6 mg/kg | ~5.6 mg/kg | – |
| CCCN(CCC)C1CSc2sccc2C1 (stereo not drawn) [N,N-dipropyl-5,6-dihydro-4H-thieno[2,3-b]thiopyran-5-amine hydrochloride] | – | – | ~150 nM |
